Data reported in ChEMBL document CHEMBL1124877, “Synthesis and biological evaluation of 4-fluoro-, 7-fluoro-, and 4,7-difluoro-5,6-dihydroxytryptamines” (J Med Chem, 1990).

Assays:
Format in all cases: functional, cell-based
Settings in all cases: Mus musculus, N2a
[1] = Effect on the uptake of [3H]5-HT into differentiated N-2a cells.
[2] = Inhibition of [3H]- Thymidine incorporation into the DNA of differentiated neuroblastoma clone N-2a cells
[3] = Inhibition of [3H]- Thymidine incorporation into the DNA of differentiated neuroblastoma clone N-2a cells.

SMILES	IC50 [1]	IC50 [2]	IC50 [3]
NCCc1c[nH]c2cc(O)c(O)cc12	17.8 µM	92 µM	
CN1CC(=O)NC1=N.NCCc1c[nH]c2cc(O)c(O)c(F)c12	0.55 µM		117 µM
CN1CC(=O)NC1=N.NCCc1c[nH]c2c(F)c(O)c(O)cc12	0.76 µM		125 µM
CN1CC(=O)NC1=N.NCCc1c[nH]c2c(F)c(O)c(O)c(F)c12	1.36 µM		135 µM
